Results: patent US9757400B2, “Peptidomimetic inhibitors of post-proline cleaving enzymes” (Trustees of Tufts College, priority 2001, dated 2017)

Tests used:
[1] = pH around neutral, due to cyclization, inventors' previous work; cited from earlier work
[2] = target: soluble DPIV (Homo sapiens, UniProt P27487); conditions: inventors' previous work; cited from earlier work
[3] = Cyclization equilibrium, ratio of [cyclic]:[open] forms; assay type: physicochemical; conditions: at equilibrium at pH 7.0
Excerpt: In this example, Xaa-boro-Ala analogs containing bulky R substituent will be constructed to prevent cyclization and increase biological activity. […] The open, active, inhibitory chain species is favored at low pH while the cyclized structure is favored at high pH. Also, the reaction is fully reversible: the open chain becomes predominate at low pH. The open chain to cyclic species reaction involves a trans to cis isomerization of the proline and the formation of a new N—B bond. […] This means that less than 1% Pro-boroPro and less than 0.1% of Val-boroPro exists as the open chain, inhibitory species, at equilibrium at pH 7.0.
One feature of the present invention relates to the equilibrium constant for cyclization. […] In addition, the cis-trans isomerization rate, and therefore the rates of cyclization and uncyclization, are also much faster for compounds of the present invention. This feature is attributed by the inventors to a bulky substituent effect, e.g. where R in FIG. 8 represents a cyclohexyl.

[4] = target: DPPIV (Homo sapiens, UniProt P27487); assay: Inhibitor inactivation at pH 8 (time course, DPPIV inhibition read-out); assay type: biochemical; conditions: pre-incubated at pH 8 (7.5-8) for 0, 60, 120, 180 minutes; compared with His-bAla, Ala-bAla, Phg-bAla
Experimental: In this experiment stock solutions of inhibitors (His-bAla, Ala-bAla, Phg-bAla and Cyclohexylglycine-bAla) were prepared at pH 1-2. These stock solutions were pre-incubated at pH 8 as follows: first, 1:10 dilutions into a buffer (0.1 M HEPES pH 8, 0.14 M NaCl) were performed; secondly, the pH was measured after dilution and varied for different inhibitors between 7.5 and 8; and thirdly, incubations at this pH were performed for 0, 60, 120, 180 minutes. Following incubation, 1:10 serial dilutions of inhibitors in buffer and 1:10 dilution of inhibitors into Enzyme (DPPIV) in buffer were made. The inhibitors were pre-incubated with enzyme for 10 minutes to account for slow binding and substrate (H-Ala-Pro-paranitoranalide) was added at a concentration of approx.=KM (17 μM). Absorbances at 410 nm were recorded for all inhibitors after 30 minutes.

[5] = system: zucker obese rats; assay: Oral glucose tolerance test (oral glucose challenge) in zucker rats; assay type: in vivo, rat; conditions: oral 0.035 mg/kg or 0.35 mg/kg, oral glucose tolerance test within an hour, saline control
Experimental: In these “acute” experiments zucker obese and zucker lean rats were orally administered either 0.035 mg/kg (low dose) or 0.35 mg/kg (high dose) of cyclohexyl-gly boro ala and then subjected to an oral glucose tolerance test within an hour. Each set of experiments was also performed using saline as a control.

[6] = target: T1, DPPIV (Rattus norvegicus, UniProt P14740); assay: DPPIV assays on serum samples from treated rats; assay type: in vivo; conditions: 1 hour after treatment versus before
T1 construct: from tissue; host or cells: rat serum
Experimental: Four rats were used in this experiment: two females (#3 and #9) and two males (#10 and #11). Blood and plasma samples were collected from rats 1 hour after being treated with Cyclohexylglycine-boroAla. The collected serum samples were evaluated for DPPIV activity of Cyclohexylglycine-boroAla as follows: • 2 mg of Ala-Pro-paranitroanalide (substrate) was dissolved in 20 ml 0.1 M HEPES pH 8, 0.14 M NaCl (buffer). • Serum samples were diluted into substrate solution in the wells of a microtiter plate. For each sample, 10 uL of serum was diluted into 150 μL of substrate. • A reading of the A410 in each well was recorded immediately after the dilution of serum into substrate, and again after approximately 1 hour. The time of data acquisition for each reading is recorded in the data file by the microplate reader software.
The rate of absorbance change was obtained by subtracting the first reading from the second and dividing by the reaction time to give DeltaA410/hr. The DPPIV activity was plotted in units of DeltaA410 hr^−1 μL^−1.

DPPIV (Homo sapiens, UniProt P27487), sequence (P27487 whole entry, species assumed): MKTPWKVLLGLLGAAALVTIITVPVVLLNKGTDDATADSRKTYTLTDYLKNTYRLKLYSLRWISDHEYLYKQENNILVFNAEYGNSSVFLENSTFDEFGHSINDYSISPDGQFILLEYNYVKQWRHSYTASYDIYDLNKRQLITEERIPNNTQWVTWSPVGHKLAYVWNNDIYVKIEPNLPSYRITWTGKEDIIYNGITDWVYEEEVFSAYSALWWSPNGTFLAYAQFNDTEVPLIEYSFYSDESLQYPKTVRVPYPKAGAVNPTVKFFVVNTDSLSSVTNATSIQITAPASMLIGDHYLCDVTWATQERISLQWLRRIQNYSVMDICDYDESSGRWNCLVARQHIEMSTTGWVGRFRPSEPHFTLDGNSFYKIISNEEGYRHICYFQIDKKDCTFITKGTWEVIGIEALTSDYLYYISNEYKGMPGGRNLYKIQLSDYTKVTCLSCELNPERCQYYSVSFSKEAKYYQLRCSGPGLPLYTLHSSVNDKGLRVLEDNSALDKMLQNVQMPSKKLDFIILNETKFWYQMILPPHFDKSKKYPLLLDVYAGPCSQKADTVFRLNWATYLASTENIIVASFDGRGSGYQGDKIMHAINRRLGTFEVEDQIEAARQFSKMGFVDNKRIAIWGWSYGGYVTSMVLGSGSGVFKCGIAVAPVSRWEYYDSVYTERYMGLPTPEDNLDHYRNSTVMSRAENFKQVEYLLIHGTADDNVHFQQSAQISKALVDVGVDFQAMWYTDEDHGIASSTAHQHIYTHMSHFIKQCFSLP
soluble DPIV, sequence (P27487 39-766 limits assumed): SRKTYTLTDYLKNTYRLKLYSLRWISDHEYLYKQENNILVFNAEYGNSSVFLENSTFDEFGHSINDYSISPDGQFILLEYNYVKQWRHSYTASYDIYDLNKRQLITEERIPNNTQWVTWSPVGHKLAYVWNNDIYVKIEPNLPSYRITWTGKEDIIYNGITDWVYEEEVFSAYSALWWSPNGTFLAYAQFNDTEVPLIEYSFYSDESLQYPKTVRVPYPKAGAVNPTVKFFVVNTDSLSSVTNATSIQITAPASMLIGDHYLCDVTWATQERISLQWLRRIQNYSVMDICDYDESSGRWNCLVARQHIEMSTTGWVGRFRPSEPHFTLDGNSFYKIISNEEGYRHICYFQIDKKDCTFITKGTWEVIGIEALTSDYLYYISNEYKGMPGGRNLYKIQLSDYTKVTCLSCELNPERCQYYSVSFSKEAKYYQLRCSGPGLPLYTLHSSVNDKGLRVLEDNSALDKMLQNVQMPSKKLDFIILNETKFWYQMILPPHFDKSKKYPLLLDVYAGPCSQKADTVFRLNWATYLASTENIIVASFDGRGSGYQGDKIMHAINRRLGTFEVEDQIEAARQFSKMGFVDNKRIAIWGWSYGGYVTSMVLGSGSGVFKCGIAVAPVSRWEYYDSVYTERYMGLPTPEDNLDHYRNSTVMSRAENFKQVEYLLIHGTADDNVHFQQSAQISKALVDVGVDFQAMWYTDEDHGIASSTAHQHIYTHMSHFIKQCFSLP
T1 sequence (P14740 37-767 limits assumed): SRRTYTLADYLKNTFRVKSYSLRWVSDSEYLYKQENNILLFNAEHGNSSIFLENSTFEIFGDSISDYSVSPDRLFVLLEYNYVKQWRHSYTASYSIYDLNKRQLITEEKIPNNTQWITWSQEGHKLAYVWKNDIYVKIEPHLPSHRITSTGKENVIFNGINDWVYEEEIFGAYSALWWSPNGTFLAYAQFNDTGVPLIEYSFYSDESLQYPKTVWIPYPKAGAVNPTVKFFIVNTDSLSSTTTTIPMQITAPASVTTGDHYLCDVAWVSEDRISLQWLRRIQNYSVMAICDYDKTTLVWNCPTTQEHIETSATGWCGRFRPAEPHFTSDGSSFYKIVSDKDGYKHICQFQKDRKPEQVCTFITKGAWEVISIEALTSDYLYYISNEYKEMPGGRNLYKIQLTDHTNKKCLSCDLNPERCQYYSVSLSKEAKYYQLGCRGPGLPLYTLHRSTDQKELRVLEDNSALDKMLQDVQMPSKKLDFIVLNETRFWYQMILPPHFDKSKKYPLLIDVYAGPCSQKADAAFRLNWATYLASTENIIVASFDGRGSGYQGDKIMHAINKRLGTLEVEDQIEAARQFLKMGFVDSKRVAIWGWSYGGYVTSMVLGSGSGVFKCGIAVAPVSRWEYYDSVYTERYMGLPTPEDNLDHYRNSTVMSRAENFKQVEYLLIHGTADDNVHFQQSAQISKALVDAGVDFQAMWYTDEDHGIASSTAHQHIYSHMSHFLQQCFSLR

SMILES | loss of inhibitory activity in aqueous solution [1] | fraction existing as the open chain, inhibitory species [3] | other results
O=C(C1CCCN1)N1CCCC1B(O)O [L-Pro-D,L-boroPro] | lost some of their inhibitory activity rapidly |  | inhibition of the catalytic activity of soluble DPIV [2]: potent inhibitors
CC(C)[C@H](N)C(=O)N1CCC[C@H]1B(O)O [Val-boroPro] |  | less than 0.1% | 
CC(N)C(=O)N1CCCC1B(O)O [L-Ala-D,L-boroPro] | lost some of their inhibitory activity rapidly |  | 
CC(NC(=O)C(N)C1CCCCC1)B(O)O (centres unmarked) [Cyclohexylglycine-boroAla, Cyclohexylglycine boroAla] |  |  | pH-time dependant inhibition (inactivation at pH 8) [4]: does not show significant pH-time dependant inhibition; blood sugar in oral glucose challenge after oral administration [5]: orally active and clearly lowers blood sugar; DPPIV enzyme activity in serum [6]: significantly decreased
O=C(C1CCCN1)N1CCCC1B(O)O (centres unmarked) [Pro-boroPro] |  | less than 1% | 
